The assay is described as follows: Titration of FHN-P by aminocaproic acid, Schiff base model reaction (method B). Particulars: 25° C. As for the experimental part: Method B is used to titrate FHN-P by aminocaproic acid. For each analysis of TEA buffer containing a fixed concentration of FHN-P (10 μM), aminocaproic acid is added to obtain varying final concentrations (0.01-0.2 M). The differential absorption spectra, corresponding to the formation of a Schiff base, are recorded at different time intervals, then corrected with absorbance of the buffer, the aminocaproic acid and FHN-P (measured separately).
The apparent first-order rate constant (kapp) and the maximum threshold variations of absorption (ΔAmax) are obtained for each test by applying the slow-binding absorption data to the first-order kinetic equation (or to both first-order kinetic mechanisms). The dissociation constant (Kd) for the Schiff base formed between the FHN-P and the aminocaproic acid is obtained from the absorption differences calculated at equilibrium by using the equation eqn.(2). […]
The FHN-P and the ε-amino group of aldolase lysine residues were taken as the model for formation of the Schiff base, with the reaction of FHN-P (10 μM) with aminocaproic acid […] as a reference, and which was monitored by UV-visible differential spectroscopy. […]

For the compound `O=Cc1c(O)ccc2cc(OP(=O)(O)O)ccc12` [FHN-P, 5-formyl-6-hydroxy-2-naphthylphosphate], the “second-order constant k2nd” value (FHN-P 10 μM with aminocaproic acid) was 0.002 ± 0.00017 M⁻¹ s⁻¹. The equilibrium dissociation constant (Kd) (in general, the equilibrium constant for the complex coming apart) (Schiff base, TEA buffer, read-out: dissociation constant Kd of FHN-P-aminocaproic acid) is 16 ± 3 mM.

Source of the values: patent US7470821B2, “Aldolase-inhibiting aromatic compounds” (Valorisation-Recherche, Limited Partnership, priority 2003, dated 2008).
